Experiments:
[1] = Pharmacokinetic data: plasma concentrations in the 12-week osteoarthritis trial; assay type: in vivo, human
Experimental: (§1) Three hundred and twenty (320) patients aged 41 to 78 years of age with confirmed osteoarthritis of the knee were randomized in the double-blind, multi-center trial. Patients who completed the one-week washout and the seven-to-10-day baseline phase were randomized 1:1:1 to receive either 250 mg of CBD daily, 500 mg of CBD daily, or placebo, for 12 weeks. […] The 250 mg and 500 mg doses were administered as a 4.2% (wt/wt) CBD gel.

[2] = tested on: patients with confirmed osteoarthritis of the knee; test: Double-blind, multi-center, placebo-controlled 12-week trial: worst knee pain score, WOMAC physical function, composite responders; assay type: in vivo, human; design: mean reduction from baseline in average worst knee pain scores / Worst Knee Pain Score: scale not given here
Experimental: as §1
Across all participants, patients on 250 mg of CBD daily dosage achieved a 2.64 mean reduction from baseline in average worst knee pain scores at week 12; patients on 500 mg of CBD daily achieved a 2.83 mean reduction from baseline in average worst knee pain scores at week 12; and patients on placebo achieved a 2.37 mean reduction from baseline in average worst knee pain scores at week 12. […] A mixed-model repeated measures (MMRM) model was used to test for differences between active treatment groups and placebo based on all weekly average worst knee pain scores from Baseline to Week 12.
Over an initial 7 day period, patients were instructed to end use of other osteoarthritic treatment such as NSAID or COX-2 inhibitor, but were permitted to use acetaminophen for rescue use. At this time, baseline mean worst knee pain was identified for each patient. During the study, rescue use of acetaminophen was permitted for both active and placebo study groups, and there was no difference among the groups in prevalence of rescue use.
Fisher's Exact Test was used to test for differences in composite responders between each active treatment and placebo at LOCF. In the composite responder analysis, a positive response on the composite response analysis indicated a ≥30 percent reduction in worst average daily pain scores and a >20 percent improvement in WOMAC (Western Ontario & McMaster Universities Osteoarthritis Index) physical function score.
The study data was also analyzed with regard to the active dose per weight of the patient (i.e., dosage/weight in mg CBD/kg weight of patient). For this analysis, the patient population was divided into three groups: 0-25 percentile, 25-75 percentile, and 75-100 percentile, by dose/weight. Table 9 is a summary of composite responder analysis at last observation Dose/Weight Quartile 0-25%. Table 10 is a summary of composite responder analysis at last observation dose/weight quartile 25-75%. Table 11 is a summary of composite responder analysis at last observation dose/weight quartile 75-100%.

[3] = 250 mg CBD, efficacy patients, last observation, 93 assessed
[4] = 250 mg CBD, efficacy patients, last observation, 106 assessed
[5] = 500 mg CBD, efficacy patients, last observation, 91 assessed
[6] = 500 mg CBD, efficacy patients, last observation, 105 assessed
[7] = Dose/Weight Quartile 0-25%, 250 mg, last observation, 46 assessed, p=0.010

C=C(C)[C@@H]1CCC(C)=C[C@H]1c1c(O)cc(CCCCC)cc1O [CBD, 2-[3-methyl-6-(1-methylethenyl)-2-cyclohexen-1-yl]-5-pentyl-1,3-benzenediol]
dose media plasma concentrations, dose relationship ([1]; 500 mg and 250 mg daily CBD doses): dose proportional | plasma concentration of the 500 mg dose relative to the 250 mg dose ([1]; 500 mg vs 250 mg daily): approximately two times | 20 Percent Responders in Physical Function WOMAC Score: No, number of patients [2, 3]: 33 | 20 Percent Responders in Physical Function WOMAC Score: No, percent of patients [2, 3]: (35.5) % | 20 Percent Responders in Physical Function WOMAC Score: Yes, number of patients [2, 3]: 60 | 20 Percent Responders in Physical Function WOMAC Score: Yes, percent of patients [2, 3]: (64.5) % | Composite Responder: No, number of patients [2, 3]: 44 | Composite Responder: No, percent of patients [2, 3]: (47.3) % | Composite Responder: Yes, number of patients ([2]; 250 mg CBD, efficacy patients, last observation, 93 assessed, p=0.016 vs placebo): 49 | 30 Percent Reduction in Diary Pain: No, number of patients [2, 4]: 53 | 30 Percent Reduction in Diary Pain: No, percent of patients [2, 4]: (50.0) % | 30 Percent Reduction in Diary Pain: Yes, number of patients [2, 4]: 53 | 30 Percent Reduction in Diary Pain: Yes, percent of patients [2, 4]: (50.0) % | responder rate based on ≥30% reduction in worst pain severity ([2]; 250 mg of CBD daily, week 8, p=0.037): Statistically significant | 20 Percent Responders in Physical Function WOMAC Score: No, number of patients [2, 5]: 37 | 20 Percent Responders in Physical Function WOMAC Score: No, percent of patients [2, 5]: (40.7) % | 20 Percent Responders in Physical Function WOMAC Score: Yes, number of patients [2, 5]: 54 | 20 Percent Responders in Physical Function WOMAC Score: Yes, percent of patients [2, 5]: (59.3) % | Composite Responder: No, number of patients [2, 5]: 50 | Composite Responder: No, percent of patients [2, 5]: (54.9) % | Composite Responder: Yes, number of patients ([2]; 500 mg CBD, efficacy patients, last observation, 91 assessed, p=0.169 vs placebo): 41 | 30 Percent Reduction in Diary Pain: No, number of patients [2, 6]: 54 | 30 Percent Reduction in Diary Pain: No, percent of patients [2, 6]: (51.4) % | 30 Percent Reduction in Diary Pain: Yes, number of patients [2, 6]: 51 | 30 Percent Reduction in Diary Pain: Yes, percent of patients [2, 6]: (48.6) % | 20 Percent Responders in Physical Function WOMAC Score: Yes, percent of patients ([2]; Dose/Weight Quartile 0-25%, 250 mg, last observation, 46 assessed): 69.6% | Composite Responders: Yes, number of patients [2, 7]: 27 | Composite Responders: Yes, percent of patients [2, 7]: 58.7% | mean reduction from baseline in average worst knee pain scores ([2]; all participants, 250 mg CBD daily, week 12, placebo 2.37, not statistically significant): 2.64 | mean reduction from baseline in average worst knee pain scores ([2]; all participants, 500 mg CBD daily, week 12, placebo 2.37, not statistically significant): 2.83 | mean reduction from baseline in average worst knee pain scores ([2]; baseline pain score ≥7, both CBD dosage groups combined, week 4, placebo 1.6, p=0.029): 2.17 | mean reduction from baseline in average worst knee pain scores ([2]; baseline pain score ≥7, both CBD dosage groups combined, week 8, placebo 2.22, p=0.054): 3.02 | mean reduction from baseline in average worst knee pain scores ([2]; baseline pain score ≥7, both CBD dosage groups combined, week 12, placebo 2.52, p=0.086): 3.29 | Composite Responders: Yes, percent of patients ([2]; dose/weight quartile 25-75%, 250 mg, last observation, 47 assessed, p=0.194): 46.8% | Composite Responders: Yes, percent of patients ([2]; dose/weight quartile 25-75%, 500 mg, last observation, 45 assessed, p=0.133): 48.9% | Composite Responders: Yes, percent of patients ([2]; dose/weight quartile 75-100%, 500 mg, last observation, 46 assessed, p=0.453): 41.3% | Composite Responders ([2]; male patients, 250 mg, LOCF, placebo 27%, p=0.003): 60% | Worst Knee Pain Score, % reduction ([2]; male patients, 250 mg, wk 4): 24% | Worst Knee Pain Score ([2]; male patients, 250 mg, wk 4, baseline 6.77, p=0.156): 5.05 | Worst Knee Pain Score, % reduction ([2]; male patients, 250 mg, wk 8): 34% | Worst Knee Pain Score ([2]; male patients, 250 mg, wk 8, baseline 6.77, p=0.066): 4.47 | Worst Knee Pain Score, % reduction ([2]; male patients, 250 mg, wk 12): 39% | Worst Knee Pain Score ([2]; male patients, 250 mg, wk 12, n=47, baseline 6.77, p=0.049): 4.16 | Composite Responders ([2]; male patients, 500 mg, LOCF, placebo 27%, p=0.174): 41% | Worst Knee Pain Score, % reduction ([2]; male patients, 500 mg, wk 4): 22% | Worst Knee Pain Score ([2]; male patients, 500 mg, wk 4, baseline 6.85, p=0.323): 5.33 | Worst Knee Pain Score, % reduction ([2]; male patients, 500 mg, wk 8): 30% | Worst Knee Pain Score ([2]; male patients, 500 mg, wk 8, baseline 6.85, p=0.474): 4.73 | Worst Knee Pain Score, % reduction ([2]; male patients, 500 mg, wk 12): 33% | Worst Knee Pain Score ([2]; male patients, 500 mg, wk 12, n=38, baseline 6.85, p=0.193): 4.44 | mean reduction from baseline in average worst knee pain scores ([2]; men, 250 mg of CBD daily, week 4, placebo 1.19, p=0.156): 1.65 | mean reduction from baseline in average worst knee pain scores ([2]; men, 250 mg of CBD daily, week 8, placebo 1.56, p=0.066): 2.30 | mean reduction from baseline in average worst knee pain scores ([2]; men, 250 mg of CBD daily, week 12, placebo 1.70, p=0.049): 2.68 | pain reduction over placebo ([2]; patients having a baseline knee pain score less than 7, FIG. 10): not statistically significant | Composite Responders ([2]; patients with ≥7 mean baseline pain score, CBD groups combined, placebo 33%, p=0.083): 51% | Worst Knee Pain Score, % reduction ([2]; patients with ≥7 mean baseline pain score, CBD groups combined, wk4): 28% | Worst Knee Pain Score ([2]; patients with ≥7 mean baseline pain score, CBD groups combined, wk4, baseline 7.7, p=0.029): 5.45 | Worst Knee Pain Score, % reduction ([2]; patients with ≥7 mean baseline pain score, CBD groups combined, wk8): 40% | Worst Knee Pain Score ([2]; patients with ≥7 mean baseline pain score, CBD groups combined, wk8, baseline 7.7, p=0.054): 4.61 | Worst Knee Pain Score, % reduction ([2]; patients with ≥7 mean baseline pain score, CBD groups combined, wk12): 43% | Worst Knee Pain Score ([2]; patients with ≥7 mean baseline pain score, CBD groups combined, wk12, n=75, baseline 7.7, p=0.086): 4.34 | Worst Knee Pain Score, % reduction ([2]; total patients, 250 mg, wk 4): 24% | Worst Knee Pain Score ([2]; total patients, 250 mg, wk 4, baseline 6.8, p=0.432): 5.09 | Worst Knee Pain Score, % reduction ([2]; total patients, 250 mg, wk 8): 34% | Worst Knee Pain Score ([2]; total patients, 250 mg, wk 8, baseline 6.8, p=0.193): 4.43 | Worst Knee Pain Score, % reduction ([2]; total patients, 250 mg, wk 12): 38% | Worst Knee Pain Score ([2]; total patients, 250 mg, wk 12, n=76, baseline 6.8, p=0.517): 4.23 | Worst Knee Pain Score, % reduction ([2]; total patients, 500 mg, wk 4): 27% | Worst Knee Pain Score ([2]; total patients, 500 mg, wk 4, baseline 6.87, p=0.067): 4.96 | Worst Knee Pain Score, % reduction ([2]; total patients, 500 mg, wk 8): 37% | Worst Knee Pain Score ([2]; total patients, 500 mg, wk 8, baseline 6.87, p=0.21): 4.27 | Worst Knee Pain Score, % reduction ([2]; total patients, 500 mg, wk 12): 41% | Worst Knee Pain Score ([2]; total patients, 500 mg, wk 12, n=75, baseline 6.87, p=0.249): 3.99

Source: patent US20240189255A1, “METHODS OF TREATMENT OF OSTEOARTHRITIS WITH TRANSDERMAL CANNABIDIOL GEL” (ZYNERBA PHARMACEUTICALS, INC., priority 2017, published 2024)
